Experimental data: patent US10618869B2, “Oligo-benzamide compounds and their use” (The Board of Regents of the University of Texas System, priority 2010, dated 2020)
“Also recorded” adds a separate entry of the source.

Key:
[1] = system: AR binding on PSA promoter; assay: ChIP assay of AR binding on PSA promoter; format: cell-based
Source text: (§1) FIG. 9. […] This effect of D2 could be rescued by overexpression of AR (bottom left panel) or PELP1 (bottom right panel).
(§2) At the protein level, D2, but not D1, was able to block DHT-induced expression of PSA protein. Again, the suppresion of DHT-induced transcription from an ARE could be overcome by overexpression of either AR or PELP1 ([…]). Overexpression of PELP1 was able to rescue the D2-mediated suppression of DHT-induced transcription nearly back to baseline.

[2] = system: AR-negative PCa cell lines such as DU145 or PC3; assay: DHT-induced proliferation of AR-negative PCa cell lines; format: cell-based
Procedure: (§3) FIGS. 10A-E. D2 blocks proliferation of prostate cancer cells in vitro and in vivo (a) Effect of pretreatment with 100 nM of D1 and D2 on DHT-induced proliferation in multiple prostate cancer cell lines in MTT assay. Numbers are normalized to a baseline of 100, which represents the untreated rate of proliferation. (b) Effect of pretreatment with 100 nM of D1 and D2 on DHT-induced proliferation in LNCaPcells on a Cyquant assay. (c) Dose dependent curve of D2 on proliferation of LAPC4 cells. (d) Rescue of DHT induced proliferation by overexpression of PELP1 following suppression of DHT induced proliferation with 100 nM of D2. (e). Effect of direct intratumoral injections of D1 and D2 on the proliferation of prostate cancer xenografts in animal models: Following establishment of subcutaneous xenografts in animal models, daily direct intratumoral injections of D1 and D2 were performed. Bioluminesence imaging was used to track the growth of the tumors and the effect of D1 and D2 quantitated as shown in the graph.
The importance of PELP1 and AR interaction on DHT-mediated proliferation of prostate cancer cells were confirmed using rescue experiments, where D2 suppression of DHT-mediated proliferation was overcome by overexpression of PELP1 in LNCaP PCa cells.

[3] = system: DHT-regulated transcripts; assay: DHT-regulated transcripts, Illumina platform, LNCaP cells; format: cell-based; details: of the 341 transcripts significantly upregulated by DHT
Procedure: FIG. 8. Effect of D2 on DHT-induced transcription: RNA from LNCaP cells untreated or treated with DHT in the absence and presence of D2 were evaluated by the Illumina platform for DHT-regulated transcripts. […] Expression levels of selected genes are shown in the right panel, including AR-regulated genes and those involved in cell proliferation.
(§4) FIG. 8 confirms these findings by QPCR experiment evaluating the effect of D1 and D2 on DHT-induced TMPRSS and PSA gene expression at the RNA level in LNCaP cells (bottom left panel) and by western blot analyses as evaluated by the effect of D1 and D2 on the expression of PSA, androgen receptor and actin in LAPC4 cells at the protein level. […] Confirmation of these findings were obtained by QPCR and western blot analyses.

[4] = system: PSA and TMPRSS promoter; assay: QPCR of PSA and TMPRSS, DHT-induced; format: cell-based
Source text: as §4, §2

[5] = system: ARE-luciferase reporter; assay: DHT-induced transcription from minimal ARE-luciferase reporter; format: cell-based; details: LNCaP, CWR22v1 and LAPC4 cell lines
Source text: as §1, §2

[6] = system: LNCaP cells; assay: Uptake of fluorescein analogues of D2 by LNCaP cells; format: cell-based; details: summary statement
Procedure: FIGS. 14A-C. Effect of chemical conjugation of Fluorescein to D2 at the amino and carboxy terminus (FIG. 14A) on uptake by LnCaP cells at 4 hours (FIG. 14B) and on DHT-induced proliferation of PCa cells (FIG. 14C).
In FIG. 14, two fluorescent analogues of D2 were prepared, one by introducing a fluorescein moiety to the C-terminus of D2 (CF1-D2) and the other by placing it at the N-terminus (CF2-D2).

[7] = system: AR-PELP1 interaction; assay: DHT-induced AR-PELP1 co-immunoprecipitation in PCa cells; format: cell-based
Source text: FIG. 6. Effect of D1 and D2 on DHT induced AR-PELP1 co-immunoprecipitation in LNCaP cells.
FIGS. 7A-C. Effect of D1 and D2 on DHT induced AR-PELP1 co-immunoprecipitation in LNCaP cells. (FIG. 7A) Model depicts the proposed role for D2 in disrupting the interaction between AR and NR Box proteins such as Hsp27 and PELP1. (FIG. 7B) Effect of increasing concentration of D2 on complex formation between AR and NR Box proteins such as Hsp27 and PELP1, as shown for immunoprecipitation with AR (top panel) and with PELP1 (bottom panel). Input lysates are shown at the bottom. (FIG. 7C) Rescue of D2-induced suppression of AR-PELP1 complex formation: Following transient transfection with increasing concentrations of AR (left panel) or increasing concentration of PELP1 (right panel), LnCAP cells were treated with 10 nM DHT for 24 hours following preincubation with D2 or control D1. Extracts were immunoprecipitated with AR and immunoblotted with PELP1, AR or importin.
FIG. 6 provides confirmation that D2 was directed against the LXXLL (SEQ ID NO: 1) motif and was capable of blocking AR and PELP1 interaction in vivo was obtained from coimmunoprecipitation experiments in LnCaP PCa cells.
D2 was also able to block the DHT- and E2-induced interaction of AR with PELP1 in LAPC4, C4-2, VCAP and CWR22v1 cells. […] The ability of D2 to block AR-PELP1 interaction could be overcome by transient over-expression of PELP1 in a dose-dependent manner.

[8] = system: prostate cancer xenografts; assay: Subcutaneous prostate cancer xenografts; format: in vivo, nude mice
Procedure: as §3
They have shown that this synthetic peptidomimetic D2 is capable of blocking AR-PELP-1 interaction, nuclear translocation of AR, AR mediated genomic signaling as well as DHT-mediated proliferation of prostate cancer cells in vitro. The IC50 of D2 appears to be around 40 nM. […]

[9] = system: PCa cells; assay: EGF or LPA-induced proliferation of PCa cells (MTT assay); format: cell-based; details: peptidomimetic added 2 hours prior
Procedure: FIG. 11. […] D2 does block DHT-induced proliferation of prostate cancer cells.
In this experiment, cells were plated (2-10×10^3/well) in 96 well plates and subjected to androgen deprivation for 48 hours with phenol-red free RPMI and 1% charcoal stripped fetal bovine serum (CSF). Cells were then treated with either ethanol, EGF or DHT as a positive control for 48 hours. Peptidomimetics were added 2 hours prior to treatment. Cell proliferation was measured using the MTT colorimetric assay.

[10] = system: erk; assay: DHT-mediated non-genomic activation of erk; format: cell-based; details: FIG. 12

For COC(=O)c1ccc(NC(=O)c2ccc([N+](=O)[O-])c(OCC(C)C)c2)c(OCC(C)C)c1 [D2], the “DHT-induced AR binding on PSA promoter (ChIP)” value [1] was “blocked DHT-induced AR binding; also recorded: blocked AR binding to its cognate DNA sequence”, the “DHT-induced proliferation of AR-negative PCa cell lines” value [2] was “but not AR-negative PCa cell lines” and the “DHT-upregulated genes reduced back to baseline” value [3] was 219 genes. For the same molecule, the “DHT-induced transcription from ARE-driven promoters at RNA level (QPCR)” value [4] was “block DHT-induced transcription from ARE-driven promoters was confirmed”, the “DHT-induced transcription from minimal ARE-luciferase reporter” value [5] was “able to block; also recorded: block DHT-Induced gene expression” and the “entry into prostate cancer cells” value [6] was “enters the prostate cancer cells”. The “stability of AR or PELP1” value [7] was “did not adversely affect”, the “DHT- and E2-induced interaction of AR with PELP1” value ([7]; LAPC4, C4-2, VCAP and CWR22v1 cells) was “able to block” and the “DHT-induced physical interaction of AR and PELP1” value ([7]; LnCaP cells, preincubation with 100 nM) was “blocked”. For the same molecule, the “AR-PELP1 interaction, dose dependence” value ([7]; increasing concentration, FIG. 7) was “blocked AR-PELP1 interaction in a dose-dependent manner”, the “growth of prostate cancer cells implanted subcutaneously” value ([8]; nude mice, intratumoral or intraperitoneal administration) was “significantly abrogate the growth” and the “AR-PELP1 complex formation in xenograft tumors” value ([8]; protein extracts of tumors after daily intratumoral injections) was “biologically active in blocking AR-PELP1 interaction; also recorded: able to block”. The “EGF or LPA-induced proliferation of PCa cells” value [9] was “no effect; also recorded: does not affect” and the “DHT-mediated non-genomic activation of erk” value [10] was “no effect; also recorded: does not block”.
